Results reported in PubChem BioAssay (NCI).
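Exposure lasted 48 hours, with cells grown in 96-well plates and compounds tested at five concentrations. GI50 is the concentration that inhibits growth by half. TGI is the concentration that stops growth completely.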

How the values were obtained:
Assay in all cases: NCI anticancer screen, dose series, 48 h
HOP-62 NSCLC = test system: HOP-62 NSCLC
MOLT-4 leukemia = test system: MOLT-4 leukemia
UO-31 renal = test system: UO-31 renal
SW-620 colon = test system: SW-620 colon
CAKI-1 renal = test system: CAKI-1 renal
OVCAR-3 ovarian = test system: OVCAR-3 ovarian
MCF7 breast = test system: MCF7 breast
MDA-MB-435 = test system: MDA-MB-435
MDA-N = test system: MDA-N
SR leukemia = test system: SR leukemia

| SMILES | TGI (HOP-62 NSCLC) | TGI (MOLT-4 leukemia) | TGI (UO-31 renal) | TGI (SW-620 colon) | TGI (CAKI-1 renal) | TGI (OVCAR-3 ovarian) | TGI (MCF7 breast) | TGI (MDA-MB-435) | TGI (MDA-N) | TGI (SR leukemia) | GI50 (HOP-62 NSCLC) | GI50 (MOLT-4 leukemia) | GI50 (SW-620 colon) | GI50 (SR leukemia) | GI50 (MCF7 breast) | GI50 (UO-31 renal) | GI50 (MDA-MB-435) |
| --- | --- | --- | --- | --- | --- | --- | --- | --- | --- | --- | --- | --- | --- | --- | --- | --- | --- |
| Cc1ccc(OP2(=O)Oc3ccc4ccccc4c3CN2c2ccc(Cl)cc2)cc1C (stereo not given) | > 100 µM | > 100 µM | > 100 µM | > 100 µM | > 100 µM | > 100 µM | > 100 µM | – | – | – | – | – | – | – | – | – | – |
| NC1=CN(CCCO)C2=N/C(=C\c3ccco3)C(=O)N12 | > 100 µM | > 100 µM | > 100 µM | > 100 µM | > 100 µM | > 100 µM | > 100 µM | > 100 µM | > 100 µM | – | – | – | – | – | – | – | – |
| CSc1n[nH]c(N)c1C(=O)Nc1ccc(Cl)cc1 | – | > 100 µM | > 100 µM | > 100 µM | > 100 µM | > 100 µM | > 100 µM | > 100 µM | > 100 µM | > 100 µM | – | – | – | – | – | – | – |
| CC(C)(C)C1CCC2c3c([nH]c4ccccc34)C3C(=O)N(c4cc(Br)cc(Br)c4)C(=O)C3C2C1 (stereo not given) | 69.6 µM | 38.2 µM | 46.2 µM | > 100 µM | 66.6 µM | – | 17.5 µM | 77.2 µM | > 100 µM | 82.4 µM | – | – | – | – | – | – | – |
| COc1cc2c(cc1OC)C(=O)N(c1ccc(O)cc1)C2 | > 100 µM | > 100 µM | – | > 100 µM | > 100 µM | > 100 µM | – | > 100 µM | > 100 µM | > 100 µM | – | – | – | – | – | – | – |
| COc1ccc(-n2sc3ncc(-c4ccccc4)cc3c2=O)cc1 | > 100 µM | – | 49.7 µM | > 100 µM | 67.3 µM | 47.2 µM | > 100 µM | > 100 µM | – | – | – | – | – | – | – | – | – |
| COc1ccc(C(=O)C2CC3(CCC2(O)c2ccc(OC)cc2)CC(=O)Nc2ccccc2C3=O)cc1 (stereo not given) | > 100 µM | – | > 100 µM | > 100 µM | > 100 µM | > 100 µM | > 100 µM | > 100 µM | > 100 µM | > 100 µM | – | – | – | – | – | – | – |
| COc1ccc(C[C@@H]2CN(C(=O)c3ccccc3)[C@H](Cc3ccc(O)cc3)CN2C(=O)c2ccccc2)cc1Br | > 100 µM | > 100 µM | > 100 µM | > 100 µM | > 100 µM | > 100 µM | > 100 µM | > 100 µM | – | > 100 µM | – | – | – | – | – | – | – |
| COc1c2nc(CCl)n(C)c(=O)c2c(OC)c2c(=O)n(C)c(CCl)nc12 | 5.7 µM | 1.54 µM | 2.49 µM | 2.6 µM | 2.94 µM | 5.68 µM | 2.36 µM | 7.65 µM | 3.31 µM | – | – | – | – | – | – | – | – |
| COc1ccc2c(c1O)-c1c(OC)c(OC)cc3c1[C@H](C2)[N+](C)(C)CC3 | – | > 100 µM | > 100 µM | > 100 µM | > 100 µM | > 100 µM | > 100 µM | > 100 µM | > 100 µM | – | – | – | – | – | – | – | – |
| CCOn1cc(C[C@@]2(O)C(=O)OC3[C@@H](O)CO[C@@]32O)c2ccccc21 (stereo not given in full) | > 100 µM | > 100 µM | > 100 µM | > 100 µM | > 100 µM | > 100 µM | > 100 µM | > 100 µM | – | > 100 µM | – | – | – | – | – | – | – |
| Oc1c(OCc2nnc(CCCCCCCCc3nnc(COc4ccc5ccccc5c4O)n3Nc3ccccc3)n2Nc2ccccc2)ccc2ccccc12 | 3.77 µM | > 100 µM | 19.6 µM | 24.6 µM | 13.8 µM | 30.6 µM | 68.1 µM | 19.3 µM | 12.8 µM | – | – | – | – | – | – | – | – |
| Nc1cc2c(cc1[N+](=O)[O-])[nH]c1c(-c3ccccc3)nccc12 | 41.4 µM | 19.8 µM | 28.9 µM | > 81.5 µM | – | 48.5 µM | > 64.1 µM | – | – | – | – | – | – | – | – | – | – |
| CSc1nc2c(c(N(C)C)n1)C=Nn1c(nc3ccccc31)S2 | > 100 µM | > 100 µM | > 100 µM | > 100 µM | > 100 µM | > 100 µM | – | > 100 µM | > 100 µM | – | – | – | – | – | – | – | – |
| On1c(-c2ccccc2)c(-c2c(-c3ccccc3)n(O)c3ccccc23)c2ccccc21 | – | > 100 µM | 53 µM | – | – | > 100 µM | – | – | – | – | – | – | – | – | – | – | – |
| ClCCN(CCCl)Cc1ccc(Nc2ccnc3cc(Cl)ccc23)cc1 | 5.16 µM | 2.78 µM | – | 14.6 µM | – | – | 9.34 µM | – | – | 2.78 µM | 1340 nM | 416 nM | 1350 nM | 269 nM | 588 nM | – | – |
| O=c1[nH]cnc2c1nnn2CCCn1nnc2c(=O)[nH]cnc21 | > 100 µM | > 100 µM | > 100 µM | > 100 µM | > 100 µM | > 100 µM | – | – | – | > 100 µM | – | – | – | – | – | – | – |
| CN(NC(=O)c1ccco1)C1=NCCCCN1 | > 100 µM | > 100 µM | > 100 µM | > 100 µM | – | > 100 µM | > 100 µM | > 100 µM | > 100 µM | > 100 µM | – | – | – | – | – | – | – |
| c1cnc2c(c1)-n1cccc1C1(CCOCC1)NN2 | – | > 100 µM | > 100 µM | > 100 µM | > 100 µM | > 100 µM | – | – | – | > 100 µM | – | – | – | – | – | – | – |
| [N-]=N[N+]#I1OC(C(F)(F)F)(C(F)(F)F)c2ccccc21 | 28.4 µM | 59.2 µM | 23.7 µM | 40 µM | 20.9 µM | 27.8 µM | 27.3 µM | 34.2 µM | – | 68.3 µM | – | – | – | – | – | – | – |
| O=C(NCCNCCO)N/N=C/c1cccc([N+](=O)[O-])c1 | > 100 µM | > 100 µM | > 100 µM | > 100 µM | > 100 µM | > 100 µM | – | – | – | – | – | – | – | – | – | – | – |
| COC[C@H]1C(=O)NCC(=O)N2NCCC[C@H]2C(=O)N(O)[C@H](C)C(=O)O[C@@H](C(C)C)[C@H](NC(=O)[C@](C)(O)[C@]2(O)CC[C@@H](CC(C)C)[C@H](C)O2)C(=O)N2NCCC[C@@H]2C(=O)N1O | 0.0149 µM | 0.0464 µM | 0.0458 µM | – | – | – | – | 0.0128 µM | – | 0.0555 µM | < 10 nM | < 10 nM | – | 11.8 nM | – | 19.2 nM | < 10 nM |
| CC1=C/C(=C(\c2ccc(N(C)C)cc2)c2ccc([N+](C)(C)C)cc2)C=CC1=[N+](C)C | 71.5 µM | 28.2 µM | 78.1 µM | 46.3 µM | 41.1 µM | 24.4 µM | – | – | – | 4.75 µM | – | – | – | – | – | – | – |
| C=C/C(C)=C/[C@H](C)C(=O)C[C@H](O)CC1CC(=O)NC(=O)C1 | > 91.1 µM | > 100 µM | > 100 µM | > 100 µM | > 100 µM | > 100 µM | > 100 µM | – | – | – | – | – | – | – | – | – | – |
